From ChEMBL document CHEMBL1133192, “sp2-bridged diaryl retinoids: effects of bridge-region substitution on retinoid X receptor (RXR) selectivity” (Bioorg Med Chem Lett, 2000) come the findings set out here.

Experiment [1] has as its target T1, Retinoic acid receptor RXR-alpha (Homo sapiens, UniProt P19793).
T1 sequence (P19793 whole entry): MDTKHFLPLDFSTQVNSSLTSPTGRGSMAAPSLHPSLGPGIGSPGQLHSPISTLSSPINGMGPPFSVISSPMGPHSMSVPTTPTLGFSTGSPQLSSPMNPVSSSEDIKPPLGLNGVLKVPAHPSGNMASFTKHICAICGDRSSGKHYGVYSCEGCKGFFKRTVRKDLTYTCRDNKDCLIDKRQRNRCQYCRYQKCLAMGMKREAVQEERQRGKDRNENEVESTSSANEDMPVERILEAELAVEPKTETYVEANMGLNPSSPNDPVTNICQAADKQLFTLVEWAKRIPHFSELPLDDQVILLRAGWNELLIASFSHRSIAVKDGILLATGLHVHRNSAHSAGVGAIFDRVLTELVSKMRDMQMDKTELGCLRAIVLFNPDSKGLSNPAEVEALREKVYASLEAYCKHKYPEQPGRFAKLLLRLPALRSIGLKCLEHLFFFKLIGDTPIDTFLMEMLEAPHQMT
Kind of experiment: Transcriptional activation in CV-1 cells expressing Retinoid X receptor RXR-alpha. The format is cell-based, Cercopithecidae.

Experiment [2] relates to MDA-MB-231. Kind of experiment: Inhibition of MDA-MB-231 cell proliferation after seven days. The experiment is classed as functional, cell-based. The settings on record: Homo sapiens, MDA-MB-231, 168 h.
For experiment [3], the target named is T1, Retinoic acid receptor RXR-alpha. Kind of experiment: Transcriptional activation in CV-1 expressing retinoid X receptor RXR alpha.
Experiment [4] concerns MDA-MB-231. Kind of experiment: Effect on MDA-MB-231 cell proliferation with trans-RA; No inhibition. The format is functional, cell-based. The note with it: Homo sapiens.
In experiment [5] the test system is MDA-MB-231. Kind of experiment: Effect on MDA-MB-231 cell proliferation; No inhibition. The experiment is classed as functional, cell-based. The note with it: Homo sapiens.
Experiment [6] concerns MDA-MB-231. Kind of experiment: Effect on MDA-MB-231 cell proliferation with compound 8; Significant inhibition. The experiment is classed as functional, cell-based. The settings on record: Homo sapiens.
Experiment [7] deals with MDA-MB-231. Kind of experiment: Effect on MDA-MB-231 cell proliferation; No effect. The format is functional, cell-based. The settings on record: Homo sapiens.
Experiment [8] relates to MDA-MB-231. Kind of experiment: Inhibition of MDA-MB-231 cell proliferation after seven days at 12.5 uM. The note with it: Homo sapiens, MDA-MB-231, 168 h. The format is functional.
Experiment [9] deals with T2, Retinoic acid receptor beta (Homo sapiens) (UniProt P10826).
T2 sequence (whole entry): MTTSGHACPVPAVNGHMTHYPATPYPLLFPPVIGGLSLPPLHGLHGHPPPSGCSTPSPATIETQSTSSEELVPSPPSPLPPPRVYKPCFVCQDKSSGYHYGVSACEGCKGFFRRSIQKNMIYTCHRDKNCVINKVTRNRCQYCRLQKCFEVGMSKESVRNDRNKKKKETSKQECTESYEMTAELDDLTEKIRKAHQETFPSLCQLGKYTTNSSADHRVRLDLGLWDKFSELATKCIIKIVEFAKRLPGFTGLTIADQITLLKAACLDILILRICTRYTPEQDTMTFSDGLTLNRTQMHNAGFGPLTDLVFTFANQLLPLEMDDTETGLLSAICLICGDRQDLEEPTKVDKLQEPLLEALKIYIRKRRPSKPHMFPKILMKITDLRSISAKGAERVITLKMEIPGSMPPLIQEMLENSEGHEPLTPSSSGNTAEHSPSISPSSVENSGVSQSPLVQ
Kind of experiment: Percent transcriptional activation of Retinoic acid receptor beta at 1 uM compared to 1 uM trans-retinoic acid.

Experiment [10] concerns the target T3, Retinoic acid receptor gamma (Homo sapiens) (UniProt P13631).
T3 sequence (whole entry): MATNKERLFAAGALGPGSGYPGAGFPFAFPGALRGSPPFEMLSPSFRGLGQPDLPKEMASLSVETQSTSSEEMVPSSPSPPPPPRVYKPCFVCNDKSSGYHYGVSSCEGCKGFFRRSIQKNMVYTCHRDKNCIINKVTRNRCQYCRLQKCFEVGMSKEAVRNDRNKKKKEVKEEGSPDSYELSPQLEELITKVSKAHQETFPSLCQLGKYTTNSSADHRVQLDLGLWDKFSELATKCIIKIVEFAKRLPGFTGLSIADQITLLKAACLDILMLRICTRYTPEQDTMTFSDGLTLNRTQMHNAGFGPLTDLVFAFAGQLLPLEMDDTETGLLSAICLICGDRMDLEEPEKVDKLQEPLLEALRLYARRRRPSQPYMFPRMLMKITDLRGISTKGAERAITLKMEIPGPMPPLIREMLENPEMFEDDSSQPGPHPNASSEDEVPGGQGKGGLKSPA
Kind of experiment: Percent transcriptional activation of Retinoic acid receptor RAR gamma receptor at 1 uM compared to 1 uM trans-retinoic acid.

The target in experiment [11] is T4, Retinoic acid receptor alpha (Homo sapiens) (UniProt P10276).
T4 sequence (whole entry): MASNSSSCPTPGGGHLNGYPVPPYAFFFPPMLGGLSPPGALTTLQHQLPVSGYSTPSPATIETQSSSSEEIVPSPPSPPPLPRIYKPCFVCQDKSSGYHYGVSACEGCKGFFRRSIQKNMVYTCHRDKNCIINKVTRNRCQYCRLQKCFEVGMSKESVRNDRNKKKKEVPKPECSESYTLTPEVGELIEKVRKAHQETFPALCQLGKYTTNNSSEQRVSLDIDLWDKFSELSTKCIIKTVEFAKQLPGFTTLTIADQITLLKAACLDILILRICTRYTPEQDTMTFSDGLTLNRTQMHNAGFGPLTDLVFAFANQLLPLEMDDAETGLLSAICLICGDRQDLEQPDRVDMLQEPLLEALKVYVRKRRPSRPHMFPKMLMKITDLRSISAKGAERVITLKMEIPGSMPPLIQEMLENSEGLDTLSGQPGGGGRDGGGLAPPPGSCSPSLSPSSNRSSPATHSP
Kind of experiment: Percent transcriptional activation of Retinoic acid receptor RAR alpha at 1 uM compared to 1 uM trans-retinoic acid.

Molecules are shown by their SMILES. Calls of active or inactive are those of the source. No cut-off for these calls is given here.

`CC(C)/C=C(/c1ccc(C(=O)O)cc1)c1ccc2c(c1)C(C)(C)CCC2(C)C`: the AC50 – broadly, the midpoint of the concentration-response curve, whichever way the signal moves – in experiment [1] was more than 1000 nM.

With `CC1(C)CCC(C)(C)c2cc(C(=C3CC3)c3ccc(C(=O)O)cc3)ccc21`, the IC50 – broadly, the point on the concentration scale where inhibition reaches its midpoint – in the experiment on MDA-MB-231 [2] is 1100 nM. In experiment [1], half-maximal activity (AC50) was put at 5 nM.

Regarding `CC1(C)CCC(C)(C)c2cc(-c3cccc4cc(C(=O)O)ccc34)ccc21`, the AC50 in experiment [3] is more than 1000 nM.

For the molecule `CC(C)=C(c1ccc(C(=O)O)cc1)c1cc2c(cc1C)C(C)(C)CCC2(C)C`, the outcome in the experiment with MDA-MB-231 [4] and with MDA-MB-231 [5] was inactive. The molecule also had an AC50 in [1] of 22 nM.

Regarding `CC1=C(/C=C/C(C)=C/C=C/C(C)=C/C(=O)O)C(C)(C)CCC1`, the outcome with MDA-MB-231 [6] was Active. Besides, in the experiment with MDA-MB-231 [7], the result was inactive.

In experiment [1], `Cc1cc2c(cc1C(=C1CC1)c1ccc(C(=O)O)cc1)C(C)(C)CCC2(C)C` registered an AC50 of less than 10 nM.

`CC(C)=C(c1ccc(C(=O)O)cc1)c1ccc2c(c1)C(C)(C)CCC2(C)C` yielded an AC50 in [1] of 160 nM.

Turning to `CC1=C(/C=C/C(C)=C\C=C\C(C)=C\C(=O)O)C(C)(C)CCC1` [ALITRETINOIN], the inhibition (commonly the relative decrease from the control value, in per cent) at 12.5 µM in the experiment with MDA-MB-231 [8] came to 45%. In addition, the values for the Activation in experiment [9], in [10] and in [11] were 112%, 126% and 105%, respectively.
